Source: patent US10323007B1, “N2N N4-disubstituted quinazoline-2,4-diamines and uses thereof” (University of South Florida, priority 2016, dated 2019)
In brackets after ≈: the same amount, converted by molar mass. Where two headings read alike, the source gives them in different places.

Columns and labels:
A. baumannii 1646 [1] = assay: MIC assay, strain 1646; format: cell-based, Acinetobacter baumannii
Method: MIC and MBC assays were performed in this study as documented by us previously.^17,23,24,25 The A. baumannii strains used are detailed in Table 7.

A. baumannii strain 1403 = format: cell-based, Acinetobacter baumannii; conditions: serial passage, 8 days, start 0.5× MIC
Method: An important attribute of novel antibiotics is the ability to fend off the development of resistance towards their effects. To assess this capacity, A. baumannii strains were incubated overnight with 0.5× MIC of each of the frontrunners. The next day cells were washed and used to inoculate fresh media that contained a two-fold increase in drug. This was repeated for a total of 8 days, alongside sulfamethoxazole (SMX) and trimethoprim (TMP) controls, both of which target the same pathway as our lead agents (FIG. 2).
In order to test potential resistance towards the quinazolines, a serial passage assay was performed alongside control compounds (Sulfamethoxazole and Trimethoprim), as described by us previously.^24 A. baumannii strain 1403 was grown overnight in LB media at 37° C. The next day cultures were diluted 1:100 in fresh media and seeded into a 96-well plate. Lead quinazolines or control agents were added to respective wells at half MIC concentrations. […] These were then grown overnight, and the procedure repeated for a total of eight days.

[2] = test system: A. baumannii 1649 biofilm; assay: biofilm eradication determination assay, strain 1649; format: cell-based, Acinetobacter baumannii; conditions: 90% biofilm eradication, Table 8
Method: These assays were performed as described by us previously,^26,24 as follows. Each of the A. baumannii strains were grown overnight in Mueller Hinton Broth (MHB). The next day these were used to seed fresh MHB to an OD600 of 0.5, with 150 μL then added to the wells of a 96 well plate and grown for 24 hours at 37° C. After 24 hours, the planktonic bacteria were carefully removed and fresh MHB was added with increasing concentrations of lead quinazolines. After incubation at 37° C. for 24 hours, planktonic cells were removed and biofilms were washed three times with phosphate buffered saline (PBS). Biofilms were then resuspended in PBS and plated for cell viability on tryptic soy agar. Biofilm recovery was assessed compared to no drug controls, and determined as percent eradication. This was used to determine MBEC90 values (Minimal Biofilm Eradication Concentration), where the viability of cells within the biofilm was reduced by 90%.

A. baumannii 1646 [3] = assay: murine model of lethal peritonitis; format: in vivo, mice; conditions: 2 mg kg^-1 intraperitoneal, one hour post challenge, 5 days
Method: As a final assessment, we used a murine model of lethal A. baumannii infection to determine the efficacy of quinazolines in vivo. This was performed using frontrunner 5, which had the most promising properties from all of our biological testing. Accordingly, mice were inoculated with a lethal dose of A. baumannii via intraperitoneal injection on the right side of the abdomen. One hour post challenge, mice were treated with an intraperitoneal injection of 2 mg kg^−1 of frontrunner 5 on the left side of the abdomen. As a control, we also performed similar testing using 30 mg kg^−1 of tigecycline, which we already know our test strain to be susceptible to in vitro.
Characteristics of pre-moribund state include: hunched posture, rapid, shallow and/or labored breathing, ruffled fur, lethargy, failure to respond to stimuli, soiled anogenital area, paralysis, paresis, head tilt, circling, vocalizations, non-purposeful movements, and/or were unable to eat or drink. Those mice reaching this state prior to the completion of the 5-day infection period were euthanized. The number of mice surviving between control and treatment groups was compared and analyzed for statistical significance using a log-rank (Mantel-Cox) test.

SMILES: CNc1nc(NCc2ccccc2)nc2ccc(C)cc12 [Compound 5, N^2-Benzyl-N^4,6-dimethylquinazoline-2,4-diamine]
- MIC (A. baumannii 1646 [1]; Acinetobacter baumannii, Table 6, representative data for isolate 1646, read-out: MIC): 1 µM (≈ 0.278 µg/mL)
- MIC (A. baumannii 1646 [1]; Acinetobacter baumannii, strain 1646, Table 2, read-out: 1646 MIC): 2 µM (≈ 0.557 µg/mL)
- MIC (A. baumannii 1646 [1]; Acinetobacter baumannii, strain 1646, lead quinazolines, Table 8, read-out: MIC 1646): 1 µM (≈ 0.278 µg/mL)
- MIC (A. baumannii 1646 [1]; strain 1646, Tables 1, 3, 4, 5 and footnotes, read-out: 1646 MIC): 2 µM (≈ 0.557 µg/mL)
- increase in MIC over the 8-day test period (A. baumannii strain 1403): 4 fold
- MBEC90 1649 [2]: 34 µM
- survival rate of infected animals (A. baumannii 1646 [3]): 83%
